According to the supplement of paper PMC10307832:

How the values were obtained:
Assay in all cases: relative viability (nuclei count vs DMSO), 5 days (fraction); higher = more cells survive
Axitinib + Linsitinib = compound: CNC(=O)c1ccccc1Sc1ccc2c(/C=C/c3ccccn3)n[nH]c2c1 [Axitinib] + C[C@]1(O)C[C@@H](c2nc(-c3ccc4ccc(-c5ccccc5)nc4c3)c3c(N)nccn32)C1 [Linsitinib] (partner 1 µM)
In short: (§1)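 Cells from lung cancer lines were seeded into 1536-well plates and, one day later, dosed by pin tool. Treatments were either a single drug or a fixed dose of an anchor drug with five library-drug doses (not always all listed) in √10 steps. After 5 days, nuclei were stained in a one-step fixation (final 0.05% Triton X-100, 1% formaldehyde, 1 ug/ml Hoechst) and counted on 4× images, and relative viability is the treated-to-vehicle nuclei ratio, as the median of duplicate plates.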

[1] = compound: CC1=CC=C(C=C1)C(=O)CN2C3=C(CCCC3)SC2=N [Pifithrin_alpha] + O=C(c1cc(Cc2n[nH]c(=O)c3ccccc23)ccc1F)N1CCN(C(=O)C2CC2)CC1 [Olaparib] (partner 8 µM)
In short: as §1

Axitinib + Phenformin = compound: CNC(=O)c1ccccc1Sc1ccc2c(/C=C/c3ccccn3)n[nH]c2c1 [Axitinib] + N=C(N)NC(=N)NCCc1ccccc1 [Phenformin] (partner 250 µM)
In short: as §1

[2] = compound: CC1=CC=C(C=C1)C(=O)CN2C3=C(CCCC3)SC2=N [Pifithrin_alpha] + Cc1cc(Nc2cc(N3CCN(C)CC3)nc(Sc3ccc(NC(=O)C4CC4)cc3)n2)n[nH]1 [Tozasertib] (partner 0.1 µM)
In short: as §1

Row | Cell Line | relative viability (Axitinib + Linsitinib; first compound 0.005 µM) | relative viability (Axitinib + Linsitinib; first compound 0.01581 µM) | relative viability (Axitinib + Linsitinib; first compound 0.05 µM) | relative viability (Axitinib + Linsitinib; first compound 0.1581 µM) | relative viability (Axitinib + Linsitinib; first compound 0.5 µM) | relative viability ([1]; first compound 1 µM) | relative viability ([1]; first compound 3.162 µM) | relative viability ([1]; first compound 10 µM) | relative viability ([1]; first compound 31.62 µM) | relative viability ([1]; first compound 100 µM) | relative viability (Axitinib + Phenformin; first compound 0.005 µM) | relative viability (Axitinib + Phenformin; first compound 0.01581 µM) | relative viability (Axitinib + Phenformin; first compound 0.05 µM) | relative viability (Axitinib + Phenformin; first compound 0.1581 µM) | relative viability (Axitinib + Phenformin; first compound 0.5 µM) | relative viability ([2]; first compound 1 µM) | relative viability ([2]; first compound 3.162 µM) | relative viability ([2]; first compound 10 µM) | relative viability ([2]; first compound 31.62 µM) | relative viability ([2]; first compound 100 µM)
1 | A-427 | 1.14 | 1.02 | 1.11 | 1.16 | 1.17 | 0.676 | 0.623 | 0.574 | 0.339 | 0.493 | 0.356 | 0.29 | 0.416 | 0.323 | 0.289 | 0.202 | 0.18 | 0.183 | 0.203 | 0.2
2 | LXF-289 | 0.991 | 0.952 | 0.972 | 0.962 | 0.968 | 1.16 | 0.994 | 1.1 | 0.717 | 1.16 | 0.534 | 0.518 | 0.526 | 0.508 | 0.516 | 0.209 | 0.172 | 0.174 | 0.147 | 0.14
3 | NCI-H1355 | 0.834 | 0.811 | 0.845 | 0.865 | 0.819 | 0.653 | 0.52 | 0.413 | 0.442 | 0.345 | 0.457 | 0.46 | 0.497 | 0.44 | 0.43 | 0.471 | 0.389 | 0.328 | 0.302 | 0.294
4 | NCI-H1437 | 1.02 | 1.07 | 1 | 0.898 | 0.797 | 0.681 | 0.604 | 0.521 | 0.383 | 0.277 | 0.335 | 0.314 | 0.357 | 0.277 | 0.299 | 0.502 | 0.478 | 0.403 | 0.364 | 0.409
5 | HCC-366 | 0.673 | 0.615 | 0.776 | 0.662 | 0.842 | 0.344 | 0.238 | 0.299 |  | 0.209 | 0.689 | 0.615 | 0.631 | 0.553 | 0.653 | 0.0661 | 0.0593 | 0.0876 |  | 0.0623
6 | NCI-H1299 | 0.962 | 1.03 | 0.978 | 1 | 1.06 | 0.964 | 1 | 0.985 | 0.514 | 0.794 |  |  |  |  |  |  |  |  |  | 
7 | IA-LM | 0.546 | 0.437 | 0.564 | 0.665 | 0.542 | 0.758 | 0.699 | 0.332 | 0.192 | 0.271 |  |  |  |  |  |  |  |  |  | 
8 | EBC-1 | 0.935 | 0.874 | 0.884 | 0.904 | 1.1 | 0.621 | 0.552 | 0.348 | 0.298 | 0.363 |  |  |  |  |  |  |  |  |  | 
9 | A549 | 0.606 | 0.606 | 0.595 | 0.529 | 0.573 |  | 0.473 | 0.338 | 0.175 | 0.276 | 0.204 | 0.198 | 0.217 | 0.149 | 0.216 |  |  |  |  | 
10 | ChaGo-K-1 |  |  |  |  |  | 0.404 | 0.424 | 0.336 | 0.231 | 0.371 | 0.467 | 0.428 | 0.506 | 0.437 | 0.469 | 0.218 | 0.219 | 0.204 | 0.226 | 0.192
11 | SW 900 |  |  |  |  |  | 0.646 | 0.57 | 0.56 | 0.378 | 0.487 | 0.577 | 0.411 | 0.464 | 0.46 | 0.803 | 0.53 | 0.358 | 0.372 | 0.27 | 0.364
12 | NCI-H2342 |  |  |  |  |  | 0.519 | 0.415 | 0.42 | 0.373 | 0.43 | 0.648 | 0.636 | 0.636 | 0.591 | 0.53 | 0.514 | 0.486 | 0.494 | 0.453 | 0.454
13 | Calu-6 | 1.08 | 0.97 | 1.06 | 1.01 | 1.07 | 0.534 | 0.536 | 0.46 |  | 0.427 |  |  |  |  |  |  |  |  |  | 
14 | NCI-H1648 |  |  |  |  |  | 1.1 | 0.741 | 0.963 | 0.619 | 0.682 |  |  |  |  |  | 0.592 | 0.513 | 0.393 | 0.47 | 0.421
15 | NCI-H1792 | 0.575 | 0.629 | 0.527 | 0.557 | 0.504 | 0.469 | 0.348 | 0.272 |  | 0.255 | 0.323 |  |  | 0.304 | 0.186 |  |  |  |  | 
16 | NCI-H1650 |  |  |  |  |  | 0.596 | 1.09 | 0.373 | 0.298 | 0.408 | 0.488 | 0.309 | 0.553 | 0.352 | 0.536 |  | 0.346 | 0.22 | 0.261 | 0.31
17 | NCI-H1703 | 0.888 | 0.461 | 0.12 | 0.148 | 0.164 | 0.418 | 0.328 | 0.382 | 0.313 | 0.326 |  |  |  |  |  |  |  |  |  | 
18 | NCI-H522 |  |  |  |  |  | 0.594 | 0.604 | 0.618 | 0.516 | 0.564 | 0.537 | 0.669 | 0.698 | 0.555 | 0.658 | 0.585 | 0.55 | 0.592 | 0.522 | 0.593
19 | NCI-H1623 |  |  |  |  |  |  |  |  |  |  | 0.669 | 0.585 | 0.315 | 0.613 | 0.6 | 0.42 | 0.528 | 0.432 | 0.358 | 0.349
20 | NCI-H2170 |  |  |  |  |  | 0.657 | 0.593 | 0.541 | 0.309 | 0.551 | 0.435 | 0.412 | 0.468 | 0.415 | 0.5 | 0.624 | 0.704 | 0.602 | 0.541 | 0.462
21 | NCI-H1563 | 1.23 | 1.11 | 1.12 | 0.99 | 1.22 |  |  |  |  |  | 0.778 | 0.654 | 0.625 | 0.616 | 0.667 |  |  |  |  | 
